“Also recorded” adds a separate entry of the source.

Experiment [1] deals with inflammasome (caspase-1 cleavage). The experiment in a line: Inflammasome activation measured by Caspase 1 cleavage (Casp-1 p20). The following applies: only somewhat reproducible. The experiment is classed as cell-based. An excerpt: (§1) FIG. 4 contains 5 panels, 4A-4E, depicting that NAD^+ decline promotes inflammasome activation. FIG. 4A-4D show secretion of (FIG. 4A) IL-1β, (FIG. 4B) IL-18, (FIG. 4C) IL-6, and (FIG. 4D) TNF in response to LPS and nigericin, without and with NMN.
One hallmark of inflammasome activation is cleavage of caspase-1 to generate a 20 kD peptide.

Experiment [2] deals with bone marrow derived macrophages (BMDMs). The experiment in a line: NAD^+ levels in LPS-treated bone marrow derived macrophages (enzyme-coupled luciferase assay). The class given is cell-based, mouse. The note with it: for LPS-induced drop in NAD^+ levels / protection of NAD^+ levels in macrophages exposed to LPS: BMDMs; for LPS-induced drop in NAD^+ levels: 6 hours of treatment, in the presence of LPS. The source says: FIG. 2 contains 13 panels, 2A-2M, depicting that PARP14 is necessary for LPS-induced NAD^+ destruction. FIG. 2A-2C show NAD^+ levels in response to LPS in wild-type or (FIG. 2A) CD38KO, (FIG. 2B) SARM1KO, and (FIG. 2C) PARP1KO BMDMs. […] FIGS. 2K and 2L show NAD^+ (2K) and NADH levels (2L) in PARP14KO BMDMs.
FIG. 3 contains 6 panels, 3A-3F, depicting PARP14 catalytic mechanism. […] FIG. 3E depicts NAD^+ levels after treatment with NSC-61610. FIG. 3F depicts NAD^+ levels after treatment with NSC-127133 and LPS.
NAD^+ levels rapidly decline upon LPS-activation in bone marrow derived macrophages (BMDMs). […] NAD^+ and NADH levels recover after about 24 hours (FIG. 1A-1B). […] Using a genetically-encoded fluorescent reporter in RAW264.7 immortalized macrophages (FIG. 1C), it was confirmed that these changes occur in all three major compartments of the cell. Mass spectrometry-based metabolomics in BMDMs were performed which confirmed that an increase in NAD^+ hydrolysis is driving the phenomenon (FIG. 1D-1E). Additional experiments using flux metabolomics in collaboration with Professor Marie Migaud at the University of South Alabama may be used in order to determine the rates of consumption and salvage of NAD^+, before and after treatment with LPS. In such experiments, isotopically-labeled NMN (an NAD^+ precursor) are synthesized with labels on the phosphate, ribose, and nicotinamide groups, which allows tracing of multiple downstream metabolites.

Experiment [3] has as its system LPS induced sepsis. The experiment in a line: LPS-induced sepsis (I.P. injection of LPS). The class given is in vivo. The following applies: mice. On the procedure: One common assay to measure inflammation in vivo is with LPS induced sepsis, whereby LPS is injected intraperitoneally, resulting in a lethal cytokine storm. Drugs or mutations that suppress inflammation increase survival. Mice euthanized 6 hours after LPS injection show in increase in PARP14 levels in multiple tissues (FIG. 13A-D). NAD^+ levels fall in multiple tissues, and in at least in spleen, NAD^+ levels can be protected with a co-injection of PARPi and NRH (FIG. 13E).

The subject of experiment [4] is poly-ADP-ribose (PAR) levels. The experiment in a line: Poly-ADP-ribose (PAR) levels in LPS-treated macrophages. The class given is cell-based. The following applies: NAD+ repletion. An excerpt: NMN, which raises levels of NAD^+, can suppress secretion of IL-1β and IL-18. […] The most robust observation seen is a restoration of poly-ADP-ribose (PAR) levels (FIG. 11B). While this is clearly an effect of restoring NAD^+ levels, its significance on macrophage function is unclear. […] Inflammatory gene expression may be altered, but this must be repeated with an increased N-value (FIG. 11D-F).

Experiment [5] has as its system BMDM. The experiment in a line: Polar metabolomics on BMDM extracts. The class given is cell-based, mouse. The protocol: (§2) Polar metabolomics on BMDM extracts treated with LPS, OUL35, and NRH were performed. […] Recently, Prof. Marcia Haigis (HMS) published that Sirt3, an NAD^+-sensor, regulates nucleotide metabolism (Gonzalez Herrera et al., 2018). While an increase in nucleotides could promote DNA synthesis, macrophages are reported to suppress the cell cycle in response to LPS. However, macrophages do upregulate reactive oxygen species (ROS) production for bactericidal purposes in response to LPS, and two purines—hypoxanthine and xanthine—are important for this ROS production via the enzyme xanthine oxidase (XO). With the hypothesis that macrophages increase these metabolites for increased ROS production in mind, PARPi and NRH suppress nigericin-induced ROS production, although this experiment must be repeated (FIG. 12O).

The subject of experiment [6] is reactive oxygen species (ROS) production. The experiment in a line: Nigericin-induced ROS production in macrophages. The following applies: 30 min nigericin treatment; preliminary, must be repeated. The experiment is classed as cell-based. The protocol: as §2
The test system of experiment [7] is spleen NAD+ levels. The experiment in a line: NAD^+ levels in aged spleens after I.P. injection. The class given is in vivo. The following applies: 27 month old mice, 20 mg/kg intraperitoneally, 2 hours post-injection. On the procedure: 27 month old mice were injected intraperitoneally with 20 mg/kg of OUL35 dissolved in PBS with 40% HP-beta-cyclodextrin and 1% carboxymethylcellulose. Spleens were collected 2 hours post-injection and assayed for NAD+ levels.

Experiment [8] deals with PARP1 (Homo sapiens, UniProt P09874). The note with it: cited from earlier work.
Sequence of PARP1 (P09874 whole entry, species assumed): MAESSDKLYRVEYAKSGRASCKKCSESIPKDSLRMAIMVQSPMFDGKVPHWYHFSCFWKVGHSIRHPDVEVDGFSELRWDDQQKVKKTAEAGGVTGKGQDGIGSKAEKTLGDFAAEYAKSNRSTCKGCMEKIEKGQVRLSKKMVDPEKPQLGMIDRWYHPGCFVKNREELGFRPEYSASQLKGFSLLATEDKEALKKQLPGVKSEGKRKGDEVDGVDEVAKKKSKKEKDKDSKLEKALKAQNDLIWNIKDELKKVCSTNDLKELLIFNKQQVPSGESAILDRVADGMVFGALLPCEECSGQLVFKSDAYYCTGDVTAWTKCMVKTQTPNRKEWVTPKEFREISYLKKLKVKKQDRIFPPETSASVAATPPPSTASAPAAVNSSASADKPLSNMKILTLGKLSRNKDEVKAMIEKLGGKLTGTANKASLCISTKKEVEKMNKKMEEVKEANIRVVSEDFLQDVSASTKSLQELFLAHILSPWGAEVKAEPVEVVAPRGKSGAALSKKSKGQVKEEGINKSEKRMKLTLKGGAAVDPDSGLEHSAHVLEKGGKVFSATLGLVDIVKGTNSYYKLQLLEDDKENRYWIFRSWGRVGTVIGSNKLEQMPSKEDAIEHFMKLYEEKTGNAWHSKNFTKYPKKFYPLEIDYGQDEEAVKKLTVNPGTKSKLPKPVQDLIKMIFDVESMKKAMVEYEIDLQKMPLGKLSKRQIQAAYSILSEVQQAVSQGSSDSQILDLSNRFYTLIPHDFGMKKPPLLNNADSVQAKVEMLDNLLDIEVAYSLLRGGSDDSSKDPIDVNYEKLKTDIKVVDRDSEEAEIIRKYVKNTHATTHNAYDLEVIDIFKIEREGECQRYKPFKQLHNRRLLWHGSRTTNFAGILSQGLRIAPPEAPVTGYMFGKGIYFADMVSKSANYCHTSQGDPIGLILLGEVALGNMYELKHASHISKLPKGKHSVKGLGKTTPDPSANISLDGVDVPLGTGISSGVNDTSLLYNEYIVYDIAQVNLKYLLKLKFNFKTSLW
Experiment [9] relates to PARPs 4, 10, 14, and 16. The following applies: cited from earlier work.
Experiment [10] concerns influenza. The following applies: via a different mechanism; cited from earlier work.
The test system of experiment [11] is elderly mice. The following applies: cited from earlier work.
In experiment [12] the test system is secretion of IL-1β, IL-18, IL-6 and TNF. The experiment in a line: Cytokine secretion in response to LPS and nigericin. The class given is cell-based.
Text: as §1
IL-1β and IL-18 are unique cytokines in that they require activation of an inflammasome to be processed for release.

Take `CN(C)CC(=O)Nc1ccc2[nH]c(=O)c3ccccc3c2c1` [PJ-34]: in [1], the “cleavage of caspase-1 (inflammasome activation)” value (“cleavage” for short) is given as “suppress”. In [2], the “LPS-induced drop in NAD^+ levels” value was “completely blocked” and the “raise NAD^+ levels in activated macrophages, compared with NMN” value (shortened to “raise NAD^+ levels … compared with NMN”) is reported as “beyond NMN”.
Turning to `O=C(O)c1ccccc1-c1ccccc1C(=O)Nc1ccc2c(c1)[nH]c(=O)c1ccccc12` [NSC-127133], in [2], the “LPS-induced drop in NAD^+ levels” value is recorded as “able to block the fall” and the “raise NAD^+ levels … compared with NMN” value is given as “beyond NMN”.
In the case of `NC(=O)C1=CN([C@@H]2O[C@H](CO)[C@@H](O)[C@H]2O)C=CC1` [NRH, Nicotinamide riboside hydride], in experiment [3] (6 hours after I.P. injection of LPS, co-injection), the “NAD^+ levels in spleen” value was “protected”. Also, in [3] (I.P. injection of LPS, vs LPS alone), the survival entry is listed as “moderately increased survival”. In experiment [4], the “poly-ADP-ribose (PAR) levels” value is “restoration”. Besides, in experiment [5], the “metabolite changes induced by LPS” value was “blunt the changes induced by LPS”. Besides, in experiment [6], the “nigericin-induced ROS production” value was “suppress”. Also, the “cleavage” value in experiment [1] is reported as “suppression of inflammasome activation”. The “protection of NAD^+ levels in macrophages exposed to LPS” value in experiment [2] was “protect; also recorded: more potent protectors”. Moreover, the “raising NAD^+ levels in BMDMs” value in [2] (absence and presence of LPS, after 6 hours) was “extremely potent”.
Take `NC(=O)c1ccc(Oc2ccc(C(N)=O)cc2)cc1` [OUL35]: the “metabolite changes induced by LPS” value in experiment [5] is given as “blunt the changes induced by LPS”. For the same compound, the “cleavage” value in experiment [1] is on record as “suppress”. Further, in experiment [2], the “LPS-induced drop in NAD^+ levels” value is “blocked the drop” and the “raise NAD^+ levels … compared with NMN” value is “beyond NMN”. For the same compound, in [7], the “NAD^+ levels in aged spleens” value is on record as “raises NAD^+ levels”. The “activity against PARP1” value in experiment [8] is listed as “no activity”. Also, the “inhibition of PARPs 4, 10, 14, and 16” value in experiment [9] is reported as “inhibitor”.
Turning to `CCOc1ccccc1Cl` [NSC-61610], in [10], the “effect in a model of influenza” value is reported as “anti-inflammatory”. In addition, in experiment [2], the “LPS-induced drop in NAD^+ levels” value was “able to block the fall” and the “raise NAD^+ levels … compared with NMN” value is reported as “beyond NMN”.
With `NC(=O)c1ccc[n+]([C@@H]2O[C@H](CO)[C@@H](O)[C@H]2O)c1` [NR, nicotinamide riboside], the “metabolism and aspects of ageing” value in experiment [11] is “improve metabolism and reverse aspects of ageing”.
As for `NC(=O)c1ccc[n+]([C@@H]2O[C@H](COP(=O)([O-])O)[C@@H](O)[C@H]2O)c1` [NMN, nicotinamide mononucleotide], in experiment [2], the “protection of NAD^+ levels in macrophages exposed to LPS” value is “slightly protect”. Besides, in experiment [12], the “secretion of IL-1β and IL-18” value is given as “suppress”; the “secretion of IL-6 or TNF” value is on record as “not”. Moreover, in experiment [11], the “metabolism and aspects of ageing” value is “improve metabolism and reverse aspects of ageing”.
Turning to `NC(=O)c1cccc(N)c1` [3-aminobenzimide], in [2], the “LPS-induced drop in NAD^+ levels” value is “completely blocked” and the “raise NAD^+ levels … compared with NMN” value is reported as “beyond NMN”.

The values are drawn from patent US20200407700A1, “COMPOSITIONS OF PARP14 MODULATORS AND/OR MUTANTS AND THERAPEUTIC USE THEREOF” (President and Fellows of Harvard College, priority 2018, published 2020).
